# Measurements as given in US8309721B2, “HSP90 inhibitory carbazole derivatives, compositions containing same and use thereof” (Sanofi, priority 2008, dated 2012).
# Where a name gives a salt, the structure may show the parent alone.
# Tested on: Her2 receptor expression at the surface of SKBr3 cells
# Assay: phenotypic SKBr3/HER2 cell test (Her2 surface expression by flow cytometry)
# Type: cell-based
# Conditions: 24 h incubation, inhibition of Her2 expression
# Procedure: The cellular activity of the compounds can in particular be evaluated by means of the phenotypic “SKBr3/HER2” cell test described below:
# The SKBr3 […] adenocarcinoma cells, overexpressing the Her2 tyrosine kinase receptor, originate from the ATCC (HTB-30) and are cultured in McCoy's 5A medium supplemented with 10% FBS and 1% L-glutamine.
# The cells are seeded in 12-well plates at a proportion of 125 000 cells per well in 1 ml of complete medium. The following day, the products are added at varying concentrations. After incubation for 24 h, the cells are trypsinized, washed with PBS and incubated with 100 ng of anti-Her2 antibody coupled to PE (Phycoerythrin) (BD 340552) for 30 minutes at 4° C. in the dark. The fluorescence due to the expression of the Her2 receptor at the surface of the cells is then read using a FACS Calibur flow cytometer (Becton-Dickinson). The percentage inhibition of Her2 expression as a function of the concentrations of product tested is fitted by the nonlinear regression technique (XLfit, equation 205) in order to measure an IC50 for each product.
row,IC50 [nM],SMILES
1,< 1000,"NC(=O)c1ccc(-n2c3ccccc3c3c(-c4nc5cc(F)ccc5[nH]4)cccc32)cc1N[C@H]1CCCC[C@@H]1CO (single isomer, unassigned) [Example 131]"

# Same assay, conditions: Homo sapiens, SK-BR-3, 24 h incubation, inhibition of Her2 expression
row,SMILES,IC50 [nM]
1,"NC(=O)c1ccc(-n2c3ccccc3c3c(-c4nc5ccc(F)cc5[nH]4)cccc32)cc1NCCc1ccccn1 [Example 79, 4-[4-(6-fluoro-1H-benzimidazol-2-yl)-9H-carbazol-9-yl]-2-[2-(pyridin-2-yl)ethylamino]benzamide]",< 1000
2,"NC(=O)c1ccc(-n2c3ccccc3c3c(-c4nc5ccc(F)cc5[nH]4)cccc32)cc1NC1CCCC(O)C1 [Example 89, 4-[4-(6-fluoro-1H-benzimidazol-2-yl)-9H-carbazol-9-yl]-2-(3(R,S)-hydroxycyclohexyl-1(R,S)-amino)benzamide]",< 1000
3,NC(=O)c1ccc(-n2c3ccccc3c3c(-c4nc5ccc(F)cc5[nH]4)cccc32)cc1N[C@H]1CCCC[C@H]1CO (racemic) [Example 96],< 1000
4,"CN1C2CCC1CC(Nc1cc(-n3c4ccccc4c4c(-c5ccc(C#N)nc5)cccc43)ccc1C(N)=O)C2 (stereo not drawn) [Example 135, 4-[4-(6-cyanopyridin-3-yl)-9H-carbazol-9-yl]-2-[(8-methyl-8-azabicyclo[3.2.1]oct-3-yl)amino]benzamide]",< 1000
5,"NC(=O)c1ccc(-n2c3ccccc3c3c(-c4cnc5ccccc5c4)cccc32)cc1N[C@H]1CCCC[C@H]1CO (racemic) [Example 101, 2-[1(S,R),2(R,S)-2-hydroxymethylcyclohexyl-1-amino]-4-[4-(quinolin-3-2-yl)-9H-carbazol-9-yl]benzamide]",< 1000
6,"NC(=O)c1ccc(-n2c3ccccc3c3c(-c4cnc5ccccc5c4)cccc32)cc1NCCCF [Example 76, 2-(3-fluoropropylamino)-4-[4-(quinolin-3-yl)-9H-carbazol-9-yl]benzamide]",< 1000
7,"NC(=O)c1ccc(-n2c3ccccc3c3c(-c4nc5ccc(F)cc5[nH]4)cccc32)cc1NCCCF [Example 75, 4-[4-(6-fluoro-1H-benzimidazol-2-yl)-9H-carbazol-9-yl]-2-(3-fluoropropylamino)benzamide]",< 1000
8,NC(=O)c1ccc(-n2c3ccccc3c3c(-c4nc5ccc(F)cc5[nH]4)cccc32)cc1NC[C@@H]1CCCC[C@@H]1O (racemic) [Example 93],< 1000
9,"CN1C(C)(C)CC(Nc2cc(-n3c4ccccc4c4c(-c5nc6ccc(F)cc6[nH]5)cccc43)ccc2C(N)=O)CC1(C)C [Example 85, 4-[4-(6-fluoro-1H-benzimidazol-2-yl)-9H-carbazol-9-yl]-2-(1,2,2,6,6-pentamethyl-1H-piperidin-4-ylamino]benzamide]",< 1000
10,"CC(C)(O)CNc1cc(-n2c3ccccc3c3c(-c4cnc5ccccc5c4)cccc32)ccc1C(N)=O [Example 91, (2-hydroxy-2-methylpropylamino)-4-[4-(quinolin-3-yl)-9H-carbazol-9-yl]-2-benzamide]",< 1000
11,"NC(=O)c1ccc(-n2c3ccccc3c3c(-c4nc5ccc(F)cc5[nH]4)cccc32)cc1NCCC1(O)CCCC1 [Example 71, 4-[4-(6-fluoro-1H-benzimidazol-2-yl)-9H-carbazol-9-yl]-2-[2-(1-hydroxycyclopentyl)ethylamino]benzamide]",< 1000
12,"NC(=O)c1ccc(-n2c3ccccc3c3c(-c4nc5ccc(F)cc5[nH]4)cccc32)cc1N[C@H]1CN2CCC1CC2 [Example 98, 2-{(R)-(1-azabicyclo[2.2.2]oct-3-yl)amino}-4-[4-(6-fluoro-1H-benzimidazol-2-yl)-9H-carbazol-9-yl]benzamide]",< 1000
13,"CN1CCC(O)(CCNc2cc(-n3c4ccccc4c4c(-c5nc6ccc(F)cc6[nH]5)cccc43)ccc2C(N)=O)CC1 [Example 70, 4-[4-(6-fluoro-1H-benzimidazol-2-yl)-9H-carbazol-9-yl]-2-[2-(4-hydroxy-1-methylpiperidin-4-yl)ethylamino]benzamide]",< 1000
14,NC(=O)c1ccc(-n2c3ccccc3c3c(-c4nc5ccc(F)cc5[nH]4)cccc32)cc1N[C@H]1CCCC[C@@H]1CO (racemic) [Example 97],< 1000
15,"NC(=O)c1ccc(-n2c3ccccc3c3c(-c4cncc(O)c4)cccc32)cc1N[C@H]1CC[C@H](O)CC1 [Example 73, 2-[(4-trans-hydroxycyclohexyl)amino]-4-[4-(5-hydroxypyridin-3-yl)-9H-carbazol-9-yl]benzamide]",< 1000
16,"NC(=O)c1ccc(-n2c3ccccc3c3c(-c4cnc5ccccc5c4)cccc32)cc1NCc1cocn1 [Example 94, 2-[(oxazol-4-ylmethyl)amino]-4-[4-(quinolin-3-yl)-9H-carbazol-9-yl]benzamide]",< 1000
17,"CC(C)(O)CCNc1cc(-n2c3ccccc3c3c(-c4cnc5ccccc5c4)cccc32)ccc1C(N)=O [Example 72, 2-(3-hydroxy-3-methylbutylamino)-4-[4-(quinolin-3-yl)-9H-carbazol-9-yl]benzamide]",< 1000
18,NC(=O)c1ccc(-n2c3ccccc3c3c(-c4cnc5ccccc5c4)cccc32)cc1NC[C@@H]1CCCC[C@@H]1O (racemic) [Example 95],< 1000
19,"NC(=O)c1ccc(-n2c3ccccc3c3c(-c4nc5ccc(F)cc5[nH]4)cccc32)cc1NCc1ccccn1 [Example 81, 4-[4-(6-fluoro-1H-benzimidazol-2-yl)-9H-carbazol-9-yl]-2-[(pyridin-2-ylmethyl)amino]benzamide]",< 1000

# More lines, now with the values ahead:
row,IC50 [nM],SMILES
1,< 1000,"NC(=O)c1cnc(-n2c3ccccc3c3c(-c4cnc5ccccc5c4)cccc32)cc1N[C@H]1CC[C@H](O)CC1 [Example 142, 2-[4-(quinolin-3-yl)-9H-carbazol-9-yl]-4-(4-trans-hydroxycyclohexylamino)pyridine-5-carboxamide]"
2,< 1000,"NC(=O)c1ccc(-n2c3ccccc3c3c(-c4cnc5ccccc5c4)cccc32)cc1NC1CCNCC1 [Example 124, 2-(piperidin-4-ylamino)-4-[4-(quinolin-3-yl)-9H-carbazol-9-yl]benzamide hydrochloride]"
3,< 1000,"NC(=O)c1ccc(-n2c3ccccc3c3c(-c4cnc5ccccc5c4)cccc32)cc1NCc1cccnc1 [Example 105, 2-[(pyridin-3-ylmethyl)amino]-4-[4-(quinolin-3-yl)-9H-carbazol-9-yl]benzamide]"
4,< 1000,"NCC(=O)O[C@H]1CC[C@H](Nc2cc(-n3c4ccccc4c4c(-c5cnc6ccccc6c5)cccc43)cnc2C(N)=O)CC1 [Example 128, aminoacetic acid 4-trans-{[2-carbamoyl-5-(quinolin-3-yl)-9H-carbazol-9-yl]pyridin-3-ylamino}cyclohexyl ester]"
5,< 1000,"NC(=O)c1ccc(-n2c3ccccc3c3c(-c4cnc5ccccc5c4)cccc32)cc1NCCc1cccnc1 [Example 107, 2-[2-(pyridin-3-yl)ethylamino]-4-[4-(quinolin-3-yl)-9H-carbazol-9-yl]benzamide]"
6,< 1000,"NC(=O)c1ncc(-n2c3ccccc3c3c(-c4cnc5ccccc5c4)cccc32)cc1NCCc1ccccn1 [Example 133, 3-[(2-pyridin-2-yl)ethylamino)-5-[4-(quinolin-3-yl)-9H-carbazol-9-yl]pyridine-2-carboxamide]"
7,1000 to 10000,CC(C)(C)OC(=O)N1CCC(Nc2cc(-n3c4ccccc4c4c(-c5cnc6ccccc6c5)cccc43)ccc2C(N)=O)CC1 [Example 123]
8,< 1000,CN1C(C)(C)CC(Nc2cc(-n3c4ccccc4c4c(-c5cnc6ccccc6c5)cccc43)cnc2C(N)=O)CC1(C)C [Example 122]
9,< 1000,NC(=O)c1cnc(-n2c3ccccc3c3c(-c4cnc5ccccc5c4)cccc32)cc1NC1CCOCC1 [Example 137]
10,< 1000,"NC(=O)c1ccc(-n2c3ccccc3c3c(-c4nc5ccc(F)cc5[nH]4)cccc32)cc1NCCc1cccnc1 [Example 106, 4-[4-(6-fluoro-1H-benzimidazol-2-yl)-9H-carbazol-9-yl]-2-[2-(pyridin-3-yl)-ethylamino]benzamide]"
11,< 1000,"NC(=O)c1ccc(-n2c3ccccc3c3c(-c4nc5ccc(F)cc5[nH]4)cccc32)cc1NCc1cccnc1 [Example 104, 4-[4-(6-fluoro-1H-benzimidazol-2-yl)-9H-carbazol-9-yl]-2-[(pyridin-3-ylmethyl)amino]benzamide]"
12,1000 to 10000,"CN1CCC(O)(CNc2cc(-n3c4ccccc4c4c(-c5nc6ccc(F)cc6[nH]5)cccc43)ccc2C(N)=O)CC1 [Example 102, [4-(6-fluoro-1H-benzimidazol-2-yl)-9H-carbazol-9-yl]-2-[(4-hydroxy-1-methylpiperidin-4-ylmethyl)amino]benzamide]"
13,< 1000,NC(=O)c1ccc(-n2c3ccccc3c3c(-c4cnc5ccccc5c4)cccc32)cc1NC1CCOCC1 [Example 113]
14,< 1000,"NC(=O)c1ccc(-n2c3ccccc3c3c(-c4nc5cc(F)ccc5[nH]4)cccc32)cc1N[C@H]1CCCC[C@@H]1CO (single isomer, unassigned) [Example 130]"
15,< 1000,"Cn1cnc(CNc2cc(-n3c4ccccc4c4c(-c5nc6ccc(F)cc6[nH]5)cccc43)ccc2C(N)=O)c1 [Example 110, 4-[4-(6-fluoro-1H-benzimidazol-2-yl)-9H-carbazol-9-yl]-2-[(1-methyl-1H-imidazol-4-yl)methylamino]benzamide]"
16,< 1000,"NC(=O)c1ncc(-n2c3ccccc3c3c(-c4cnc5ccccc5c4)cccc32)cc1NCCF [Example 129, 3-(2-fluoroethylamino)-5-[4-(quinolin-3-yl)-9H-carbazol-9-yl]pyridine-2-carboxamide]"
